From PMC11591901 (Biomolecules, 2024) come the findings set out here.

The target of test [1] is Acetylcholinesterase from electric eel (eeAChE, type VI-S) (Electrophorus electricus, UniProt O42275). Put plainly: biochemical.
The target of test [2] is T1, butyrylcholinesterase from equine serum (eqBChE, E.C. 3.1.1.8) (Equus caballus, UniProt P81908).
T1 construct: butyrylcholinesterase from equine serum (eqBChE, E.C. 3.1.1.8); purchased Sigma Aldrich; host or cells: equine serum
Put plainly: biochemical.

[3] abbreviates: eeAChE, Ellman assay, triplicate.
Setting [4] is: eqBChE, Ellman assay, triplicate.

SMILES strings stand for the structures. Like-named read-outs stand apart in the source and are kept apart here.

T1 sequence (P81908 whole entry): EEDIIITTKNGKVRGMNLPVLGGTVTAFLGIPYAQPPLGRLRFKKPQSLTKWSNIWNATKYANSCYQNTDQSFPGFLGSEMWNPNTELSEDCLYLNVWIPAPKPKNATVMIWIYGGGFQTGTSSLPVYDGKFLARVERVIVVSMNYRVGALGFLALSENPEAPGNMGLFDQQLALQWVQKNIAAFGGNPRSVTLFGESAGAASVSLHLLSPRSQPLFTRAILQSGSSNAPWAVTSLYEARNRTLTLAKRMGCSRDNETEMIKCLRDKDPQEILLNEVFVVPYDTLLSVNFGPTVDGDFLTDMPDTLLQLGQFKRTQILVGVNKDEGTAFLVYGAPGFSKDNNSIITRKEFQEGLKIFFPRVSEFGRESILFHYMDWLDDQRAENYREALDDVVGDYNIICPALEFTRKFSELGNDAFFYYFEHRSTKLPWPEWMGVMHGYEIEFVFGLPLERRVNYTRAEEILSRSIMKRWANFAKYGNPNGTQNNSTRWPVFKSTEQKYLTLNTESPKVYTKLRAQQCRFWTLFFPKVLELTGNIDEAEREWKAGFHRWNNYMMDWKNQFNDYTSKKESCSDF
Sequence of Acetylcholinesterase from electric eel (eeAChE, type VI-S) (O42275 24-633): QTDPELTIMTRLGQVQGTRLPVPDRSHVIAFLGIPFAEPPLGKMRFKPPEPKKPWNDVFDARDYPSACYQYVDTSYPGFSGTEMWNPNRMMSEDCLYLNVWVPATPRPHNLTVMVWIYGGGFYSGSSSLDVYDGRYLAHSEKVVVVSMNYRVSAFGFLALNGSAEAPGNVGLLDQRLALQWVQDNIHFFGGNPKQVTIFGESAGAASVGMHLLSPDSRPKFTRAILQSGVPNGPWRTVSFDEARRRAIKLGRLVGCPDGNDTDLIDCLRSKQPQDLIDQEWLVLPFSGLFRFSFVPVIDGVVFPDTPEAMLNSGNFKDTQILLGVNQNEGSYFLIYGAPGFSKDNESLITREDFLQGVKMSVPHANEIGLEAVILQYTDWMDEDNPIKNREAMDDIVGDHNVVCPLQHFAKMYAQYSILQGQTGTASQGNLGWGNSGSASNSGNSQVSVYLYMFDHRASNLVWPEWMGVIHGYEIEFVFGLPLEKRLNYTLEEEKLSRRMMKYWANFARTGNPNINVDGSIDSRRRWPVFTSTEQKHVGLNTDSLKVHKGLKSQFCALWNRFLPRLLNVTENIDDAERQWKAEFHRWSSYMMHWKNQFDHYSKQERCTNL

For `Cc1cccc(Cn2nnc3ccc4sc(C)cc4c32)c1` [Compound 19, 7-methyl-1-(3-methylbenzyl)-1H-thieno [3’,2’:3,4]benzo [1,2-d][1,2,3]triazole], the IC50 is over 250 µM in test [1] (setting [3]) and 70.3 µM in test [2] (setting [4]).
As for `Cc1cc2c(ccc3nnn(Cc4cccc(F)c4)c32)s1` [Compound 21, 1-(3-fluorobenzyl)-7-methyl-1H-thieno [3’,2’:3,4]benzo [1,2-d][1,2,3]triazole], the IC50 in test [1] (setting [3]) is 465 µM; in test [2] (setting [4]) it was 172 µM.
As for `C[n+]1nn(Cc2ccc(Cl)cc2)c2c3ccsc3ccc21` [Compound 23, 1-(4-chlorobenzyl)-3-methyl-1H-thieno [3’,2’:3,4]benzo [1,2-d][1,2,3]triazol-3-ium], the IC50 in test [1] is 4.4 µM; in test [2], 0.47 µM.
As for `COc1cccc(Cn2nnc3ccc4sc(C)cc4c32)c1` [Compound 20, 1-(3-methoxybenzyl)-7-methyl-1H-thieno [3’,2’:3,4]benzo [1,2-d][1,2,3]triazole], the results for the IC50 in test [1] (setting [3]) and in test [2] (setting [4]) were 186 µM and 90.2 µM, respectively.
As to `Cc1ccc(Cn2nnc3ccc4sc(C)cc4c32)cc1` [Compound 17, 7-methyl-1-(4-methylbenzyl)-1H-thieno [3’,2’:3,4]benzo [1,2-d][1,2,3]triazole], the IC50 in test [1] (setting [3]) was over 250 µM; in test [2] (setting [4]), 57.6 µM.
On to `COc1cccc(Cn2n[n+](C)c3ccc4sc(C)cc4c32)c1` [Compound 28, 1-(3-methoxybenzyl)-3,7-dimethyl-1H-thieno [3’,2’:3,4]benzo [1,2-d][1,2,3]triazol-3-ium], for which the half-maximal inhibitory concentration (IC50) in test [1] (setting [3]) was 54.8 µM; in test [2] (setting [4]) it was 10.6 µM.
In the same order, the values of `Cc1cccc(Cn2nnc3ccc4sccc4c32)c1` [Compound 16, 1-(3-methylbenzyl)-1H-thieno [3’,2’:3,4]benzo [1,2-d][1,2,3]triazole] are 77.1 µM and 2.9 µM.
Take `Cc1cccc(Cn2n[n+](C)c3ccc4sccc4c32)c1` [Compound 24, 3-methyl-1-(3-methylbenzyl)-1H-thieno [3’,2’:3,4]benzo [1,2-d][1,2,3]triazol-3-ium]: the IC50 in test [1] (setting [3]) was 55.1 µM; in test [2] (setting [4]) it was 7 µM.
On to `Cc1ccc(Cn2nnc3ccc4sccc4c32)cc1` [Compound 14, 1-(4-methylbenzyl)-1H-thieno [3’,2’:3,4]benzo [1,2-d][1,2,3]triazole], for which the IC50 was determined as 117 µM in test [1] (setting [3]) and 24.3 µM in test [2] (setting [4]).
With `Cc1ccc(Cn2n[n+](C)c3ccc4sccc4c32)cc1` [Compound 22, 3-methyl-1-(4-methylbenzyl)-1H-thieno [3’,2’:3,4]benzo [1,2-d][1,2,3]triazol-3-ium], the results for the IC50 in test [1] and in test [2] were 39.2 µM and 1 µM, respectively.
`Cc1cccc(Cn2n[n+](C)c3ccc4sc(C)cc4c32)c1` [Compound 27, 3,7-dimethyl-1-(3-methylbenzyl)-1H-thieno [3’,2’:3,4]benzo [1,2-d][1,2,3]triazol-3-ium]: the concentration for half-maximal inhibition (IC50) in test [1] (setting [3]) was 8.3 µM; in test [2] (setting [4]), 9.7 µM.
In the same order, the values of `C[n+]1nn(Cc2ccco2)c2c3ccsc3ccc21` [Compound 31, 1-(furan-2-ylmethyl)-3-methyl-1H-thieno [3’,2’:3,4]benzo [1,2-d][1,2,3]triazol-3-ium] are 157 µM and 16.1 µM.
Consider `C[n+]1nn(Cc2cccc(Cl)c2)c2c3ccsc3ccc21` [Compound 30, 1-(3-chlorobenzyl)-3-methyl-1H-thieno [3’,2’:3,4]benzo [1,2-d][1,2,3]triazol-3-ium], for which the half-maximal inhibitory concentration (IC50) in test [1] is 12.2 µM; in test [2] it was 2.7 µM.
With `Cc1cc2c(ccc3nnn(Cc4ccc(Cl)cc4)c32)s1` [Compound 18, 1-(4-chlorobenzyl)-7-methyl-1H-thieno [3’,2’:3,4]benzo [1,2-d][1,2,3]triazole], the half-maximal inhibitory concentration (IC50) is over 100 µM in test [1] (setting [3]) and 59 µM in test [2] (setting [4]).
In the case of `Cc1cc2c(ccc3c2n(Cc2ccc(Cl)cc2)n[n+]3C)s1` [Compound 26, 1-(4-chlorobenzyl)-3,7-dimethyl-1H-thieno [3’,2’:3,4]benzo [1,2-d][1,2,3]triazol-3-ium], the IC50 is 8.1 µM in test [1] (setting [3]) and 13.4 µM in test [2] (setting [4]).
For `Clc1ccc(Cn2nnc3ccc4sccc4c32)cc1` [Compound 15, 1-(4-chlorobenzyl)-1H-thieno [3’,2’:3,4]benzo [1,2-d][1,2,3]triazole], the IC50 in test [1] (setting [3]) was 77 µM; in test [2] (setting [4]) it was 34.6 µM.
For the molecule `Cc1ccc(Cn2n[n+](C)c3ccc4sc(C)cc4c32)cc1` [Compound 25, 3,7-dimethyl-1-(4-methylbenzyl)-1H-thieno [3’,2’:3,4]benzo [1,2-d][1,2,3]triazol-3-ium], the 50% inhibitory concentration (IC50) in test [1] was 211 µM; in test [2], 102 µM.
